The NIST ThermoML archive (doi:10.1016/j.tca.2012.12.008)

Assay: xn = mol fraction of the nth substance listed
Conditions: 101 kPa, Liquid; for viscosity: Capillary tube (Ostwald / Ubbelohde) method; for mass density: Vibrating tube method

CCCCCC(C)O (stereo unspecified) [2-heptanol] + CCC(C)=O
Conditions | mass density, 298.15 K [kg/m3] | mass density, 303.15 K [kg/m3] | mass density, 308.15 K [kg/m3] | mass density, 313.15 K [kg/m3] | viscosity, 298.15 K [mPa·s] | viscosity, 303.15 K [mPa·s] | viscosity, 308.15 K [mPa·s] | viscosity, 313.15 K [mPa·s]
x2 = 0 | 813.18 | 809.26 | 805.01 | 801.14 | 5.003 | 4.152 | 3.478 | 2.853
x2 = 0.0834 | 811.4 | 807.5 | 803.22 | 799.4 | 3.89 | 3.282 | 2.749 | 2.282
x2 = 0.1619 | 809.92 | 805.97 | 801.7 | 797.73 | 3.091 | 2.614 | 2.21 | 1.846
x2 = 0.2426 | 808.4 | 804.47 | 800.16 | 796.12 | 2.441 | 2.083 | 1.758 | 1.478
x2 = 0.3491 | 806.63 | 802.53 | 798.16 | 794.11 | 1.793 | 1.528 | 1.303 | 1.095
x2 = 0.4375 | 805.3 | 801.03 | 796.6 | 792.53 | 1.367 | 1.184 | 1.021 | 0.895
x2 = 0.5661 | 803.5 | 799.1 | 794.57 | 790.44 | 0.901 | 0.818 | 0.746 | 0.684
x2 = 0.6502 | 802.41 | 797.92 | 793.35 | 789.19 | 0.712 | 0.659 | 0.613 | 0.581
x2 = 0.7371 | 801.4 | 796.84 | 792.26 | 788.05 | 0.592 | 0.552 | 0.513 | 0.481
x2 = 0.8498 | 800.4 | 795.59 | 790.95 | 786.69 | 0.451 | 0.434 | 0.416 | 0.399
x2 = 0.9401 | 799.73 | 794.95 | 790.35 | 786 | 0.398 | 0.386 | 0.373 | 0.361

CCCCC(C)O (stereo unspecified) [2-hexanol] + CCC(C)=O
Conditions | mass density, 298.15 K [kg/m3] | mass density, 303.15 K [kg/m3] | mass density, 308.15 K [kg/m3] | mass density, 313.15 K [kg/m3] | viscosity, 298.15 K [mPa·s] | viscosity, 303.15 K [mPa·s] | viscosity, 308.15 K [mPa·s] | viscosity, 313.15 K [mPa·s]
x2 = 0 | 810.14 | 806.13 | 802.06 | 797.96 | 4.101 | 3.411 | 2.819 | 2.219
x2 = 0.0874 | 808.49 | 804.57 | 800.48 | 796.34 | 3.085 | 2.587 | 2.145 | 1.714
x2 = 0.1661 | 807.21 | 803.17 | 799.05 | 794.87 | 2.413 | 2.035 | 1.684 | 1.358
x2 = 0.2482 | 805.92 | 801.8 | 797.59 | 793.4 | 1.909 | 1.63 | 1.361 | 1.086
x2 = 0.355 | 804.36 | 800.03 | 795.83 | 791.6 | 1.454 | 1.232 | 1.027 | 0.826
x2 = 0.4463 | 803.2 | 798.8 | 794.5 | 790.25 | 1.178 | 0.998 | 0.831 | 0.692
x2 = 0.5671 | 801.84 | 797.36 | 792.94 | 788.71 | 0.889 | 0.775 | 0.678 | 0.592
x2 = 0.6534 | 801.04 | 796.47 | 792.02 | 787.75 | 0.718 | 0.647 | 0.587 | 0.536
x2 = 0.7422 | 800.4 | 795.74 | 791.22 | 786.94 | 0.603 | 0.564 | 0.525 | 0.487
x2 = 0.8547 | 799.91 | 795.09 | 790.45 | 786.14 | 0.505 | 0.479 | 0.449 | 0.419
x2 = 0.942 | 799.62 | 794.76 | 790.06 | 785.68 | 0.429 | 0.41 | 0.388 | 0.366
